Read-outs that look alike come from different tables or passages of the source.
Experiments:
[1] = tested on: linoleate isomerase from Clostridium sporogenes; assay: C. sporogenes linoleate isomerase kinetic assay, absorbence at 234 nm, partially purified enzyme; type: biochemical; conditions: for effect on isomerase activity: fatty acids and derivatives fixed at 35 μM; for Activity / Activity (%): cofactor 50 μM, DTT 1 mM; for Activity (%): no cofactor = 100; for Vmax / Km: compound as substrate; for Km: read-out: Km; for substrate has an inhibitory effect at concentrations above: substrate concentration dependency of isomerization
Experimental: In this experiment, all kinetic experiments were performed in a quartz cuvette (1-cm light-path with a magnetic stirrer) at room temperature using a HP 8452A diode array spectrophotometer. The cuvette was filled with 1 ml of incubation buffer containing 50 μg protein, 0.1 M potassium phosphate, pH7.5, 10 mM NaCl and 10% 1,2-propane diol. The isomerization was initiated by adding a small aliquot (1-2 μl) of freshly diluted substrate-stock (˜[…] linoleic acid) in 1,2-propane diol at 50 seconds. The increase in absorbence at 234 nm was monitored and recorded. […] The amount of product formed was calculated based on a molar extinction coefficient of 24,000.

[2] = target: P. acnes ATCC 6919 linoleate isomerase (Cutibacterium acnes, UniProt Q6A8X5); type: biochemical, Propionibacterium acnes; conditions: for inhibition of isomerase activity: EDTA 5 mM, 1,10-phenanthroline 1 mM, p-chloromercuribenzoate 5 μM, N-ethylmaleimide 100 μM
Experimental: Formation of CLA was determined by measuring the absorbence at 234 nm. […] Generally, the isomerase was assayed using an endpoint assay after 30 to 60 minutes incubation at room temperature. FIG. 18 (time course assay at different linoleic acid levels) and FIG. 19 (end point assay at different linoleic acid levels) show the effect of increasing substrate concentration on formation of […].

[3] = Linoleate isomerase characterization (Table 7B), enzymes compared on linoleic acid; type: biochemical
Experimental: Table 7B is a summary of the kinetic data and characterization of linoleate isomerases from P. acnes (crude extract prior to DEAE purification as in Example 11, except that the Vmax was determined using enzyme purified through the chromatofocusing step as in Example 11), L. reuteri (enzyme purified through the gel filtration step as in Example 3), and C. sporogenes (enzyme purified through the gel filtration step as in Example 17), all isolated by the present inventors, and the B. fibrisolvens A-38 linoleate isomerase (crude extract; Kepler and Tove, 1967, J. Biochem. 242:5686-5692). The substrate in these experiments was linoleic acid.

[4] = compound added at 35 μM, substrate LA 35 μM, pH 7.5, LA alone = 100%
[5] = compound as substrate at 10 PPM, activity with linoleic acid set as 100%
[6] = isomerization of (cis, cis, cis, cis)-6, 9, 12, 15 octadecatetraenoic acid 20 PPM
[7] = isomerization of linoleic acid 10 PPM

CCCCCCCCCCCCCCCC(=O)O [palmitic acid, hexadecanoic acid]
RELATIVE ACTIVITY % [1, 4]: 93%

CCCCC/C=C\C/C=C\CCCCCCCCCCCC(=O)O [(cis, cis)-13, 16 docosadienoic acid]
RELATIVE ACTIVITY % [1, 5]: 0%

[Mg] [magnesium]
effect of possible cofactors on isomerase activity ([2]; 60 minute assays): no effect

N[C@@H](CCC(=O)N[C@@H](CS)C(=O)NCC(=O)O)C(=O)O [glutathione]
effect of possible cofactors on isomerase activity [2]: No significant effect

CCCCC/C=C\C/C=C\CCCCCCCC(=O)OC [methyl linoleate, (cis, cis)-linoleic acid methyl ester]
serves as substrate [1]: do not serve as substrates
RELATIVE ACTIVITY % [1, 4]: 69%
RELATIVE ACTIVITY % [1, 5]: 0%
effect on isomerase activity [1]: inhibitors

Nc1ncnc2c1ncn2[C@@H]1O[C@H](COP(=O)(O)OP(=O)(O)O)[C@@H](O)[C@H]1O [ADP]
effect of possible cofactors on isomerase activity ([2]; 60 minute assays): No significant effect
Activity [1, 6]: 5.7 nmol/min
Activity (%) [1, 6]: 92%
Activity [1, 7]: 11.1 ± 1.7 nmol/min
Activity (%) [1, 7]: 105%

CCCCC/C=C\C/C=C\CCCCCCCCO [linoleyl alcohol, (cis, cis)-9, 12-octadecadien-1-ol]
serves as substrate [1]: do not serve as substrates
RELATIVE ACTIVITY % [1, 4]: 81%
RELATIVE ACTIVITY % [1, 5]: 0%
effect on isomerase activity [1]: inhibitors

O[C@H](CS)[C@H](O)CS (racemic) [DTT, dithiothreitol]
Activity [1, 6]: 5.9 nmol/min
Activity (%) [1, 6]: 95%
Activity [1, 7]: 12.8 ± 3.8 nmol/min
Activity (%) [1, 7]: 121%

NC(=O)c1ccc[n+]([C@@H]2O[C@H](COP(=O)([O-])OP(=O)(O)OC[C@H]3O[C@@H](n4cnc5c(N)ncnc54)[C@H](O)[C@@H]3O)[C@@H](O)[C@H]2O)c1 [NAD]
effect of possible cofactors on isomerase activity ([2]; 60 minute assays): No significant effect
Activity [1, 6]: 5.6 nmol/min
Activity (%) [1, 6]: 90%
Activity [1, 7]: 10.8 ± 1.3 nmol/min
Activity (%) [1, 7]: 102%

[Ca] [Calcium]
effect of possible cofactors on isomerase activity ([2]; 60 minute assays): no effect

CC/C=C\C/C=C\C/C=C\C/C=C\CCCCC(=O)O [stearidonic acid, (cis, cis, cis, cis)-6, 9, 12, 15 octadecatetraenoic acid]
Vmax [1]: 204 nmole/min/mg protein
RELATIVE ACTIVITY % [1, 5]: 60%
Km [1]: 18.9 µM
substrate has an inhibitory effect at concentrations above [1]: > 120 µM

CCN1C(=O)C=CC1=O [N-ethylmaleimide]
inhibition of isomerase activity [2]: not inhibited

CCCCC/C=C\C/C=C\C/C=C\CCCCCCC(=O)O [(cis, cis, cis)-8, 11, 14 eicosatrienoic acid]
RELATIVE ACTIVITY % [1, 5]: 0%

Cc1cc2nc3c(=O)[nH]c(=O)nc-3n(C[C@H](O)[C@H](O)[C@H](O)COP(=O)(O)O)c2cc1C [FMN]
effect of possible cofactors on isomerase activity ([2]; 60 minute assays): No significant effect

Nc1ncnc2c1ncn2[C@@H]1O[C@H](COP(=O)(O)OP(=O)(O)OP(=O)(O)O)[C@@H](O)[C@H]1O [ATP]
effect of possible cofactors on isomerase activity ([2]; 60 minute assays): No significant effect
Activity [1, 6]: 6.1 nmol/min
Activity (%) [1, 6]: 98%
Activity [1, 7]: 11.1 ± 1.4 nmol/min
Activity (%) [1, 7]: 105%

CCCCC/C=C\C/C=C\CCCCCCCCCC(=O)OC [(cis, cis)-11, 14 eicosadienoic acid methyl ester]
RELATIVE ACTIVITY % [1, 5]: 0%

CCCCCCCCCCCCCCCCCC(=O)O [stearic acid, octadecanoic acid]
RELATIVE ACTIVITY % [1, 4]: 107%

NC(=O)C1=CN([C@@H]2O[C@H](COP(=O)(O)OP(=O)(O)OC[C@H]3O[C@@H](n4cnc5c(N)ncnc54)[C@H](OP(=O)(O)O)[C@@H]3O)[C@@H](O)[C@H]2O)C=CC1 [NADPH]
effect of possible cofactors on isomerase activity ([2]; 60 minute assays): No significant effect
Activity [1, 6]: 6.3 nmol/min
Activity (%) [1, 6]: 102%
Activity [1, 7]: 11.1 ± 1.5 nmol/min
Activity (%) [1, 7]: 105%

O=C(O)c1cc[c]([Hg][Cl])cc1 [p-chloromercuribenzoate]
inhibition of isomerase activity [2]: not inhibited

Cc1cc2nc3c(=O)[nH]c(=O)nc-3n(C[C@H](O)[C@H](O)[C@H](O)COP(=O)(O)OP(=O)(O)OC[C@H]3O[C@@H](n4cnc5c(N)ncnc54)[C@H](O)[C@@H]3O)c2cc1C [FAD]
effect of possible cofactors on isomerase activity ([2]; 60 minute assays): No significant effect

CCCCC/C=C\C/C=C\CCCCCCCCCC(=O)O [(cis, cis)-11, 14 eicosadienoic acid]
RELATIVE ACTIVITY % [1, 4]: 0%
RELATIVE ACTIVITY % [1, 5]: 20%

CCCCCC/C=C\CCCCCCCC(=O)O [palmitoleic acid, (cis)-9 hexadecenoic acid]
RELATIVE ACTIVITY % [1, 4]: 27%
RELATIVE ACTIVITY % [1, 5]: 0%
Ki ([1]; inhibition of linoleic acid isomerization, calculated from secondary plots, read-out: inhibition constants (Ki)): 33.1 µM

CCCCCCCC[C@H]1O[C@H]1CCCCCCCC(=O)O (relative stereo) [epoxystearic acid, (cis)-9:10-epoxyoctadecanoic]
RELATIVE ACTIVITY % [1, 5]: 0%

CC(C)(COP(=O)(O)OP(=O)(O)OC[C@H]1O[C@@H](n2cnc3c(N)ncnc32)[C@H](O)[C@@H]1OP(=O)(O)O)[C@@H](O)C(=O)NCCC(=O)NCCS [CoA]
Activity [1, 6]: 6.5 nmol/min
Activity (%) [1, 6]: 105%

CCCCCCCC/C=C\CCCCCCCCCCCC(=O)O [erucic acid, (cis)-13-docosaenoic acid]
RELATIVE ACTIVITY % [1, 5]: 0%

CCCCC/C=C\C/C=C\C/C=C\CCCCC(=O)O [γ-linolenic acid, (cis, cis, cis)-6,9, 12-octadecatrienoic acid]
Vmax [1]: 236 nmole/min/mg protein
RELATIVE ACTIVITY % [1, 5]: 77%
Km [1]: 23.8 µM
substrate has an inhibitory effect at concentrations above [1]: > 15 µM

NC(=O)C1=CN([C@@H]2O[C@H](COP(=O)(O)OP(=O)(O)OC[C@H]3O[C@@H](n4cnc5c(N)ncnc54)[C@H](O)[C@@H]3O)[C@@H](O)[C@H]2O)C=CC1 [NADH]
effect of possible cofactors on isomerase activity ([2]; 60 minute assays): No significant effect
Activity [1, 6]: 6.4 nmol/min
Activity (%) [1, 6]: 103%
Activity (%) [1, 7]: 99%

CCCCC/C=C/C/C=C/CCCCCCCC(=O)O [linolelaidic acid, (trans, trans)-9, 12-octadecadienoic acid]
RELATIVE ACTIVITY % [1, 4]: 19%
RELATIVE ACTIVITY % [1, 5]: 0%

NC(=O)c1ccc[n+]([C@@H]2O[C@H](COP(=O)([O-])OP(=O)(O)OC[C@H]3O[C@@H](n4cnc5c(N)ncnc54)[C@H](OP(=O)(O)O)[C@@H]3O)[C@@H](O)[C@H]2O)c1 [NADP]
effect of possible cofactors on isomerase activity ([2]; 60 minute assays): No significant effect

B1: P. acnes: (trans, cis)-10,12-linoleate isomerase from Propionibacterium acnes ATCC 6919, SEQ ID NO:61 (protein)
chain: MSISKDSRIAIIGAGPAGLAAGMYLEQAGFHDYTILERTDHVGGKCHSPNYHGRRYEMGAIMGVPSYDTIQEIMDRTGDKVDGPKLRREFLHEDGEIYVPEKDPVRGPQVMAAVQKLGQLLATKYQGYDANGHYNKVHEDLMLPFDEFLALNGCEAARDLWINPFTAFGYGHFDNVPAAYVLKYLDFVTMMSFAKGDLWTWADGTQAMFEHLNATLEHPAERNVDITRITREDGKVHIHTTDWDRESDVLVLTVPLEKFLDYSDADDDEREYFSKIIHQQYMVDACLVKEYPTISGYVPDNMRPERLGHVMVYYHRWADDPHQIITTYLLRNHPDYADKTQEECRQMVLDDMETFGHPVEKIIEEQTWYYFPHVSSEDYKAGWYEKVEGMQGRRNTFYAGEIMSFGNFDEVCHYSKDLVTRFFV
modifications: Propionibacterium acnes
Enzyme Solubility [3]: S
CLA Isomer ([3]; CLA isomer produced from linoleic acid): 10,12
Optimal pH ([3]; substrate linoleic acid): 7.3
Km ([3]; substrate linoleic acid, crude extract): 17.2 µM
Vmax ([3]; substrate linoleic acid, purified enzyme): 478^5 nmol/min/mg
